From patent US9494589B2, “Method of determining the probability of a therapeutic response in cancer chemotherapy with cardiac glycoside” (priority 2007, dated 2016)

Assays:
[1] = tested on: rodent (mouse and rat) tumor cell lines; assay: In vitro proliferation of rodent tumor cell lines; assay type: cell-based; details: rodent tumor cell lines lacking α3 subunit isoform
Excerpt: Rodent (rat or mouse) cancer cells can be used as a negative control sample. FIG. 1A depicts a film developed against the gel of a Western blot analysis of rodent tumor cell lines. […] Human tumor cell lines are generally more sensitive to treatment with cardiac glycoside-containing composition than are murine tumor cells (FIG. 1B). The inventors believe this difference in therapeutic responsiveness is due to the differences in the ratio of α3 to α1 isoforms in the two different species, as noted above.

BRO cells = assay: In vitro cytotoxicity, MTT assay of cell proliferation; assay type: cell-based, human; details: Melanoma, 72 hr
Excerpt: (§1) As defined in the Tables above, an “in vitro response” denotes the extent to which proliferation of a given tumor cell line is inhibited with a stated concentration of drug (cardiac glycoside) over a defined period of time. A designation of “no response” denotes less than 50% growth inhibition at any of the multiple drug concentrations tested. That is, no concentration could be identified as an IC50 value (that concentration producing inhibition of cell growth by 50% over the stated period of time of the experiment). Accordingly, were this tumor cell line growing in a mammal such as a human, it is probable that the drug would be ineffective in producing significant inhibition of tumor growth. The designation of “partial response” in the Table above denotes the capacity of a given cardiac glycoside such as oleandrin or bufalin to inhibit cell proliferation by more than 50% but less than 75% relative to nontreated tumor cell growth. Accordingly, this would equate to a partial or less than complete therapeutic response of the tumor to the cardiac glycoside if this product were used to treat tumor growth in a mammal such as a human. […] Accordingly, it is probable that total inhibition of tumor growth (or a complete therapeutic response, in a mammal might be achieved.
(§2) Cells were grown in their relevant media as indicated in the table below at a density of 1×10^4 cells/well. After a 24 hr incubation period, cells were treated with various concentrations of oleandrin (1 to 500 nM). After an additional 72 hr, inhibition of cellular proliferation was assessed by MTT assay (23). Absorbance was read at a wavelength of 570 nm and a reference wavelength of 650 nm using a V-Max Micro-plate Reader by Molecular Devices, Inc. (Sunnyvale, Calif.). The relative extent of inhibition of cell proliferation due to the presence of a given concentration of oleander extract or other plant extract containing a cardiac glycoside compound(s) can be derived by comparing treated to non-treated cell numbers after a set period of time allowing for cell growth (e.g. 24-72 hr).

BXPC3 cells = assay: as above; assay type: cell-based, human; details: BXPC3, Pancreas; 72 hr
Excerpt: as §1, §2

CACO2 cells = assay: as above; assay type: cell-based, human; details: CACO2, Colon, 72 hr
Excerpt: as §1, §2

DOD-1 cells = assay: as above; assay type: cell-based, human; details: DOD-1, Colon, 72 hr
Excerpt: as §1, §2

HCT116 cells = assay: as above; assay type: cell-based, human; details: HCT116, Colon, 72 hr
Excerpt: as §1, §2

HT29 cells = assay: as above; assay type: cell-based, human; details: HT29, Colon, 72 hr
Excerpt: as §1, §2

LS174T cells = assay: as above; assay type: cell-based, human; details: Colon, 72 hr
Excerpt: as §1, §2

MCF7 cells = assay: as above; assay type: cell-based, human; details: MCF7, Breast; 72 hr
Excerpt: as §1, §2

MDA231 cells = assay: as above; assay type: cell-based, human; details: MDA231, Breast; 72 hr
Excerpt: as §1, §2

MiaPaca cells = assay: as above; assay type: cell-based, human; details: 72 hr; for IC50: Homo sapiens, MIA PaCa-2, Pancreas; for In vitro response: Pancreas
Excerpt: as §1, §2

PANC1 cells = assay: as above; assay type: cell-based, human; details: PANC1, Pancreas, 72 hr; for IC50: Homo sapiens, PANC-1
Excerpt: as §1, §2

SUM149 cells = assay: as above; assay type: cell-based, human; details: SUM149, Breast, 72 hr
Excerpt: as §1, §2

Human melanoma BRO cells = assay: Cytotoxicity comparison of oleandrin and extracts, crystal violet staining; assay type: cell-based; details: oleandrin equivalent concentrations, 72 hr
Protocol: (§3) The cytotoxic potential of both extracts are compared directly with that of oleandrin. The samples contained the same amounts of oleandrin even though their concentration of oleandrin differed due to the concentration of oleandrin present in the extracts.
(§4) BRO (human melanoma) and Panc-1 (human pancreatic cancer) cells (8×10^3/well) were plated in a 96 well plate and allowed to attach overnight. Drug or extracts were then added to the cells. After 72 hr of incubation, relative cell proliferation (relative to control untreated cells) was assessed by crystal violet staining method.

[2] = tested on: Human pancreatic cancer PANC-1 cells; assay: as above; assay type: cell-based; details: oleandrin equivalent concentrations, 72 hr
Protocol: as §3, §4

[3] = tested on: non-transfected Panc-1 cells; assay: Sensitivity to oleandrin of non-transfected Panc-1 cells; assay type: cell-based; details: Homo sapiens
Excerpt: (§5) Still further proof of the relative importance of the α3/α1 isoform ratio toward predictability of a therapeutic response by a target malignant tissue to treatment with a cardiac glycoside was established by transfection of Panc-1 cells with α1 subunit isoform. The Na, K-ATPase α1 subunit isoform was transfected to Panc-1 cells, which normally lack α1 expression. The control sample in FIG. 5A is for non-transfected Panc-1 cells, and the α1cDNA sample in FIG. 5A is for Panc-1 cells transfected with the α1 subunit isoform. As a result, the ratio of α3 to α1 was reduced in the transfected Panc-1 cells (FIG. 5B). The sensitivity of the transfected Panc-1 cells to oleandrin treatment was then evaluated.

[4] = tested on: α1 transfected Panc-1 cells; assay: Sensitivity to oleandrin of Panc-1 cells transfected with α1 subunit isoform; assay type: cell-based; details: Homo sapiens
Excerpt: as §5

[5] = tested on: Panc-1 cells transfected with α3 siRNA; assay: Sensitivity to oleandrin of Panc-1 cells transfected with α3 siRNA, Calcein AM viability; assay type: cell-based, human; details: α3 expression reduced by siRNA; 10 to 50 nM, 48 hr
Excerpt: Further proof of the relative importance of the α3/α1 isoform ratio toward predictability of a therapeutic response by a target malignant tissue to treatment with a cardiac glycoside was established as follows. Artificial down-regulation of the expression of α3 isoform in human pancreatic cancer cells, i.e. manipulation of isoform content of subunits of Na, K-ATPase, was achieved by transfection of cells with siRNA (silencing RNA) specific to the α3 isoform. […] Quantitation of the decreased expression of α3 by Western blot is detailed in FIG. 4B.
Panc-1 cells were plated in 6 and 48 well plates and allowed to attach overnight. Transient transfection of α3 siRNA molecules was carried out using siPORT™ Amine Transfection Agent (Ambion Austin, Tex.) and 0.4 μM α3 silencing RNA (Santa Cruz Biotech.) following the manufacture's instructions. Twenty-four hr after transfection, cells were treated with 10 to 50 nM oleandrin for 48 hr. Protein was collected from the 6 well plates for Western blot analysis and cell viability assessment was carried out by Calcien AM staining.

human tumor cell lines = assay: Mean IC50 of growth inhibition in groups of tumor cell lines by α3/α1 isoform ratio; assay type: cell-based; details: ten cell lines α3/α1 >1.0 versus six cell lines α3/α1 <1.0
Protocol: FIG. 3A depicts a plot of concentration (nM) of oleandrin (provided as oleandrin) versus the percentage of growth of control. […] Exemplary cell lines for the groups are: Group I-MDA231, BXPC3, MCF-7; Group II-SUM149, BRO; Group III-Panc-1, CaCo2. The response data are as predicted by the isoform ratio data. In order to establish the robustness of the method and kit of the invention, a statistical analysis of cellular response data was conducted. The data in FIG. 3B depict the relative ability of oleandrin-containing composition to inhibit human tumor cell proliferation in vitro. The data are depicted as Mean±SD. Oleandrin mediated growth inhibition was examined in ten cell lines (representing a variety of solid tumors) in which the relative subunit content α3/α1 isoform ratio >1.0 and six cell lines in which the α3/α1 isoform ratio <1.0.
Student's t test was used to determine the statistical differences between various experimental groups; a value of P<0.05 was considered to be significant.

C[C@@H]1O[C@@H](O[C@H]2C[C@@H](O)[C@]3(CO)[C@H]4[C@H](O)C[C@]5(C)[C@@H](C6=CC(=O)OC6)CC[C@]5(O)[C@@H]4CC[C@]3(O)C2)[C@H](O)[C@H](O)[C@H]1O [ouabain]
Inhibition of proliferation in vitro [1]: not significantly inhibited

CO[C@H]1C[C@H](O[C@H]2CC[C@@]3(C)[C@H](CC[C@@H]4[C@@H]3CC[C@]3(C)[C@@H](C5=CC(=O)OC5)[C@@H](OC(C)=O)C[C@]43O)C2)O[C@@H](C)[C@@H]1O [oleandrin]
IC50 (BRO cells; Homo sapiens): 0.0082 µM
In vitro response (BRO cells): Complete*** (Denotes greater than 75% growth inhibition achieved at 62 nM)
In vitro response (BXPC3 cells): No* (Denotes less than 50% growth inhibition achieved at concentrations up to 125 nM)
In vitro response (CACO2 cells): Complete*** (Denotes greater than 75% growth inhibition achieved at 62 nM)
IC50 (CACO2 cells; Homo sapiens, Caco-2): 0.0094 µM
In vitro response (DOD-1 cells): Complete*** (Denotes greater than 75% growth inhibition achieved at 62 nM)
IC50 (DOD-1 cells; Homo sapiens): 0.0196 µM
In vitro response (HCT116 cells): Partial** (Denotes greater than 50% but less than 75% growth inhibition achieved at 62 nM)
IC50 (HCT116 cells; Homo sapiens, HCT-116): 0.0362 µM
In vitro response (HT29 cells): Complete*** (Denotes greater than 75% growth inhibition achieved at 62 nM)
IC50 (HT29 cells; Homo sapiens, HT-29): 0.0156 µM
In vitro response (LS174T cells): Complete*** (Denotes greater than 75% growth inhibition achieved at 62 nM)
IC50 (LS174T cells; Homo sapiens): 0.0207 µM
In vitro response (MCF7 cells): No* (Denotes less than 50% growth inhibition achieved at concentrations up to 125 nM)
In vitro response (MDA231 cells): No* (Denotes less than 50% growth inhibition achieved at concentrations up to 125 nM)
IC50 (MiaPaca cells): 0.0142 µM
In vitro response (MiaPaca cells): Complete*** (Denotes greater than 75% growth inhibition achieved at 62 nM)
IC50 (PANC1 cells): 0.0061 µM
In vitro response (PANC1 cells): Complete*** (Denotes greater than 75% growth inhibition achieved at 62 nM)
IC50 (SUM149 cells; Homo sapiens): 0.0225 µM
In vitro response (SUM149 cells): Partial** (Denotes greater than 50% but less than 75% growth inhibition achieved at 62 nM)
IC50 (Human melanoma BRO cells): 0.017 µM
IC50 [2]: 0.01 µM
IC50 [3]: 0.0041 µM
IC50 [4]: > 0.05 µM
Sensitivity of transfected cells to treatment [5]: lose their sensitivity
Difference in mean IC50 between cell line groups (human tumor cell lines): 8 fold
Inhibition of proliferation in vitro [1]: not significantly inhibited

C[C@]12CC[C@H](O)C[C@H]1CC[C@@H]1[C@@H]2CC[C@]2(C)[C@@H](c3ccc(=O)oc3)CC[C@]12O [bufalin]
In vitro response (BXPC3 cells): No* (Denotes less than 50% growth inhibition achieved at concentrations up to 125 nM)
IC50 (MiaPaca cells): 0.0021 µM
In vitro response (MiaPaca cells): Complete*** (Denotes greater than 75% growth inhibition achieved at 62 nM)
IC50 (PANC1 cells): 0.0012 µM
In vitro response (PANC1 cells): Complete*** (Denotes greater than 75% growth inhibition achieved at 62 nM)
Inhibition of proliferation in vitro [1]: not significantly inhibited
